From PubChem BioAssay (NCI)
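Each compound was tested at five concentrations against cells in 96-well plates for 48 hours. The concentration for 50% growth inhibition is given as GI50. The concentration for full growth arrest is given as TGI.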

Tests used:
Assay in all cases: NCI tumour cell line growth inhibition, 48 h
[1] = system: MDA-MB-435
[2] = system: HT29 colon
[3] = system: OVCAR-8 ovarian
[4] = system: NCI-H460 lung
[5] = system: U251 CNS
[6] = system: SK-MEL-28 melanoma
[7] = system: SF-539 CNS
[8] = system: NCI-H23 lung
[9] = system: COLO 205 colon
[10] = system: HOP-92 NSCLC
[11] = system: LOX IMVI melanoma
[12] = system: MCF7 breast
[13] = system: MOLT-4 leukemia
[14] = system: CAKI-1 renal
[15] = system: KM12 colon
[16] = system: SK-OV-3 ovarian
[17] = system: SW-620 colon
[18] = system: DU-145 prostate
[19] = system: HCT-116 colon
[20] = system: NCI/ADR-RES ovarian
[21] = system: UACC-257 melanoma
[22] = system: HOP-62 NSCLC
[23] = system: SK-MEL-2 melanoma
[24] = system: SN12C renal
[25] = system: SNB-19 CNS
[26] = system: A549 NSCLC
[27] = system: UO-31 renal
[28] = system: RPMI-8226 leukemia
[29] = system: K-562 leukemia
[30] = system: TK-10 renal
[31] = system: PC-3 prostate
[32] = system: SR leukemia
[33] = system: HCC-2998 colon
[34] = system: EKVX NSCLC
[35] = system: OVCAR-4 ovarian
[36] = system: UACC-62 melanoma
[37] = system: BT-549 breast
[38] = system: HS 578T breast
[39] = system: A498 renal
[40] = system: ACHN renal
[41] = system: RXF 393 renal
[42] = system: SNB-75 CNS
[43] = system: MDA-MB-231 breast
[44] = system: HL-60(TB) leukemia
[45] = system: NCI-H226 lung
[46] = system: T-47D breast
[47] = system: OVCAR-3 ovarian
[48] = system: OVCAR-5 ovarian
[49] = system: M14 melanoma
[50] = system: NCI-H522 lung
[51] = system: SK-MEL-5 melanoma
[52] = system: CCRF-CEM leukemia
[53] = system: 786-0 renal
[54] = system: HCT-15 colon
[55] = system: SF-268 CNS
[56] = system: SF-295 CNS
[57] = system: IGROV1 ovarian
[58] = system: MALME-3M melanoma

Nc1nnnc2nc[nH]c12
GI50 [1]: 0.542 µM
TGI [1]: 2.57 µM
GI50 [2]: 3.79 µM
TGI [2]: > 100 µM
GI50 [3]: 1.26 µM
TGI [3]: > 100 µM
GI50 [4]: 2.46 µM
TGI [4]: > 100 µM
GI50 [5]: 2.39 µM
TGI [5]: > 100 µM
TGI [6]: > 45.8 µM
GI50 [7]: 1.63 µM
TGI [7]: 13.5 µM
GI50 [8]: 3.19 µM
TGI [8]: 40.9 µM
GI50 [9]: 1.85 µM
TGI [9]: 7.47 µM
GI50 [10]: 0.622 µM
TGI [10]: > 100 µM
GI50 [11]: 0.455 µM
TGI [11]: > 25.8 µM
GI50 [12]: 2.58 µM
TGI [12]: > 100 µM
GI50 [13]: 2.62 µM
TGI [13]: > 100 µM
GI50 [14]: 0.221 µM
GI50 [15]: 4.11 µM
TGI [15]: > 100 µM
GI50 [16]: 0.327 µM
TGI [16]: 6.22 µM
GI50 [17]: 0.78 µM
TGI [17]: > 100 µM
GI50 [18]: 0.8 µM
TGI [18]: > 100 µM
GI50 [19]: 0.639 µM
TGI [19]: > 100 µM
GI50 [20]: 0.742 µM
TGI [20]: > 26 µM
GI50 [21]: 0.729 µM
TGI [21]: 14 µM
GI50 [22]: 0.907 µM
TGI [22]: > 58 µM
GI50 [23]: 1.06 µM
TGI [23]: 42.4 µM
GI50 [24]: 2.25 µM
TGI [24]: > 100 µM
GI50 [25]: 6.17 µM
TGI [25]: > 100 µM
GI50 [26]: 6.42 µM
TGI [26]: > 100 µM
GI50 [27]: 0.523 µM
TGI [27]: > 100 µM
GI50 [28]: 0.245 µM
TGI [28]: > 85.8 µM
GI50 [29]: 3.72 µM
TGI [29]: > 100 µM
GI50 [30]: 0.5 µM
TGI [30]: > 41.5 µM
GI50 [31]: 2.42 µM
TGI [31]: > 100 µM
TGI [32]: > 100 µM
GI50 [33]: 1.26 µM
TGI [33]: > 34.7 µM
GI50 [34]: 0.7 µM
TGI [34]: > 100 µM
GI50 [35]: 0.547 µM
TGI [35]: > 100 µM
GI50 [36]: 0.637 µM
TGI [36]: 2.72 µM
GI50 [37]: 1.03 µM
TGI [37]: > 25.2 µM
GI50 [38]: 3.51 µM
TGI [38]: > 65.5 µM
GI50 [39]: 1.87 µM
TGI [39]: 15.3 µM
GI50 [40]: 1.08 µM
TGI [40]: > 100 µM
GI50 [41]: 1.35 µM
TGI [41]: > 100 µM
TGI [42]: > 100 µM
GI50 [43]: 0.597 µM
TGI [43]: > 100 µM
GI50 [44]: 1.92 µM
TGI [44]: > 100 µM
GI50 [45]: 1.05 µM
TGI [45]: 4.86 µM
GI50 [46]: 0.297 µM
TGI [46]: 2.55 µM
GI50 [47]: 2.53 µM
TGI [47]: > 100 µM
GI50 [48]: 0.623 µM
TGI [48]: > 100 µM
GI50 [49]: 0.568 µM
TGI [49]: 4.02 µM
GI50 [50]: 2.02 µM
TGI [50]: 17 µM
GI50 [51]: 2.02 µM
TGI [51]: 8.22 µM
GI50 [52]: 0.72 µM
TGI [52]: > 100 µM
GI50 [53]: 0.96 µM
TGI [53]: > 100 µM
GI50 [54]: 2.64 µM
TGI [54]: > 100 µM
GI50 [55]: 3.19 µM
TGI [55]: > 100 µM
GI50 [56]: 0.78 µM
TGI [56]: > 29.8 µM
GI50 [57]: 4.75 µM
TGI [57]: > 100 µM
GI50 [58]: 0.759 µM
TGI [58]: 7.06 µM

Cc1nc(-c2cnc(NC(C)C)n(C)c2=O)ccc1Oc1ccnc(-c2cnn(C)c2)c1
GI50 [1]: 2.98 µM
TGI [1]: 18.2 µM
GI50 [2]: 5.28 µM
TGI [2]: 68 µM
GI50 [3]: 21.3 µM
TGI [3]: > 100 µM
GI50 [4]: 13.2 µM
TGI [4]: > 100 µM
GI50 [5]: 15.6 µM
TGI [5]: > 100 µM
GI50 [6]: 14.2 µM
TGI [6]: > 100 µM
GI50 [7]: 7.5 µM
TGI [7]: 46.8 µM
GI50 [8]: 13.3 µM
TGI [8]: > 100 µM
GI50 [9]: 10.6 µM
TGI [9]: 80.7 µM
GI50 [10]: 7.44 µM
TGI [10]: 53.1 µM
GI50 [11]: 20.7 µM
TGI [11]: > 100 µM
GI50 [12]: 5.07 µM
TGI [12]: > 100 µM
GI50 [13]: 5.16 µM
TGI [13]: 35.2 µM
GI50 [14]: 7.51 µM
TGI [14]: 65.2 µM
GI50 [15]: 5.91 µM
TGI [15]: > 100 µM
GI50 [16]: 23.5 µM
TGI [16]: > 100 µM
GI50 [17]: 5.49 µM
TGI [17]: > 100 µM
GI50 [18]: 33.2 µM
TGI [18]: > 100 µM
GI50 [19]: 4.67 µM
TGI [19]: > 100 µM
GI50 [20]: 8.35 µM
TGI [20]: > 100 µM
GI50 [21]: 12 µM
TGI [21]: 55.1 µM
GI50 [22]: 12.7 µM
TGI [22]: > 100 µM
GI50 [23]: 12 µM
TGI [23]: 52.8 µM
GI50 [24]: 19.7 µM
TGI [24]: > 100 µM
GI50 [25]: 25.2 µM
TGI [25]: > 100 µM
GI50 [26]: 15 µM
TGI [26]: > 100 µM
GI50 [27]: 15.7 µM
TGI [27]: > 100 µM
GI50 [28]: 8.49 µM
TGI [28]: 81.7 µM
GI50 [29]: 1.64 µM
TGI [29]: 9.33 µM
GI50 [30]: 16 µM
TGI [30]: 75.4 µM
GI50 [31]: 16.5 µM
TGI [31]: > 100 µM
GI50 [32]: 2.99 µM
TGI [32]: 29.1 µM
GI50 [33]: 24 µM
TGI [33]: > 100 µM
GI50 [34]: 10.4 µM
TGI [34]: 99.7 µM
GI50 [35]: 7.28 µM
TGI [35]: > 100 µM
GI50 [36]: 4.84 µM
TGI [36]: 45.7 µM
GI50 [37]: 12.7 µM
TGI [37]: 70 µM
GI50 [38]: 12.2 µM
TGI [38]: 67.6 µM
GI50 [39]: 4.8 µM
TGI [39]: 38.6 µM
GI50 [40]: 18.9 µM
TGI [40]: > 100 µM
GI50 [41]: 10.7 µM
TGI [41]: 44 µM
GI50 [42]: 12.3 µM
TGI [42]: 47.7 µM
GI50 [43]: 20.5 µM
TGI [43]: > 100 µM
GI50 [44]: 4.31 µM
TGI [44]: 26.6 µM
GI50 [45]: 14.9 µM
TGI [45]: 99.1 µM
GI50 [46]: 7.39 µM
TGI [46]: 99.7 µM
GI50 [47]: 16.1 µM
TGI [47]: > 100 µM
GI50 [48]: 19.4 µM
TGI [48]: > 100 µM
GI50 [49]: 5.72 µM
TGI [49]: 33.4 µM
GI50 [50]: 5.77 µM
TGI [50]: 71.9 µM
GI50 [51]: 4.59 µM
TGI [51]: 19.5 µM
GI50 [52]: 12.1 µM
TGI [52]: > 100 µM
GI50 [53]: 25.7 µM
TGI [53]: > 100 µM
GI50 [54]: 5.51 µM
TGI [54]: > 100 µM
GI50 [55]: 23 µM
TGI [55]: > 100 µM
GI50 [56]: 9.14 µM
TGI [56]: 90.3 µM
GI50 [57]: 15 µM
TGI [57]: > 100 µM
GI50 [58]: 12.6 µM
TGI [58]: 68.8 µM
